Converted amounts (≈) assume the structure as drawn. Where two headings read alike, the source gives them in different places. Values belong to the compound of their own block, whether it stands above or below them.
Assays:
[1] = target: T1, soluble guanylate cyclase (Sus scrofa, UniProt A0A4X1U7N1+A0ACM8Q7I6); test: Stimulation of soluble guanylate cyclase in primary endothelial cells (intracellular cGMP, radioimmunological); type: cell-based; conditions: 10 min, test substance 1 μM, 10-minute incubation, primary pig aortic endothelial cells, with or without SNP 1 μM (not stated which), read-out: % increase in cGMP
T1 construct: endogenous in cells; host or cells: primary endothelial cells from pig aorta
T1 sequence (A0A4X1U7N1 1-619): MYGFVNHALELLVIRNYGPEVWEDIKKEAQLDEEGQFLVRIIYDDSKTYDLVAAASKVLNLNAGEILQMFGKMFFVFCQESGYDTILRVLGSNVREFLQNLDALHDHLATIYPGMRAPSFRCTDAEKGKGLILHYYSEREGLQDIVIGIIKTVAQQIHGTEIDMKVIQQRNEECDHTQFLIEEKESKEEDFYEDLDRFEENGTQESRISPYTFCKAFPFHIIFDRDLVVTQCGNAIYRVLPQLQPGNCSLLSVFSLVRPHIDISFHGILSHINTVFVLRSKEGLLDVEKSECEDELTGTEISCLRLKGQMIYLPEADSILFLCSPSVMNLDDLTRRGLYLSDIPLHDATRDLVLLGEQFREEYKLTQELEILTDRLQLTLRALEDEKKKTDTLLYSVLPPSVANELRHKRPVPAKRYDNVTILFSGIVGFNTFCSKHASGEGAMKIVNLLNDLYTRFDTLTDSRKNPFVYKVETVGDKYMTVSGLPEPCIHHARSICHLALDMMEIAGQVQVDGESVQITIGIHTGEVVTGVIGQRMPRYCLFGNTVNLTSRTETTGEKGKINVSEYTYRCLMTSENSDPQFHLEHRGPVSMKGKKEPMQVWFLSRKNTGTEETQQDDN
T1 sequence (A0ACM8Q7I6 1-688): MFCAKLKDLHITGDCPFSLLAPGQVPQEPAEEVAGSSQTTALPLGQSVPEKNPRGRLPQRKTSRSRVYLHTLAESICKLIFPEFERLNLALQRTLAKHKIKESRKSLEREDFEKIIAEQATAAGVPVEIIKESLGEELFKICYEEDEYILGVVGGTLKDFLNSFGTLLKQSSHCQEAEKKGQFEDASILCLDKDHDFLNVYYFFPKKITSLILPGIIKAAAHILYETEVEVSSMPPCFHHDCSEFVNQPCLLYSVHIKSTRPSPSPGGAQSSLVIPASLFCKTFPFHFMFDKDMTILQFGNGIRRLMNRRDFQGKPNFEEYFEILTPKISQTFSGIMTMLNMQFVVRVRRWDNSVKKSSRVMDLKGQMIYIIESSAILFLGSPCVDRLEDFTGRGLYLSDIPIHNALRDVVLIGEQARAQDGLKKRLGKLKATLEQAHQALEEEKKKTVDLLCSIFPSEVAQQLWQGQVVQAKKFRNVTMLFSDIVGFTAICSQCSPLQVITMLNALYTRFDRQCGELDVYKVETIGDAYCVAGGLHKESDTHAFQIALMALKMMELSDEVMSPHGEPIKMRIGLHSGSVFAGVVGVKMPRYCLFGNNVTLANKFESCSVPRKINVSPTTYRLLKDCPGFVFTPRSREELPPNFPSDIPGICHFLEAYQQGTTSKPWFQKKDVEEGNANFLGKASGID
Method: Stimulation of Soluble Guanylate Cyclase in Primary Endothelial Cells
(§1) Primary endothelial cells were isolated from pig aortas by treatment with collagenase solution. The cells were then cultured in a culture medium until confluence was reached. For the investigations, the cells were subjected to passaging, sown in cell culture plates and subcultured until confluence was reached. To stimulate the endothelial guanylate cyclase, the culture medium was suctioned off and the cells were washed once with Ringer's solution and incubated in stimulation buffer with or without an NO donor (sodium nitroprusside, SNP, 1 μM). Thereafter, the test substances (final concentration 1 μM) were pipetted onto the cells. At the end of the 10-minute incubation period, the buffered solution was suctioned off and the cells were lysed at −20° C. for 16 hours. The intracellular cGMP was then determined radioimmunologically.
as §1, with “sucked” for “suctioned”
as §1, with “without” for “without an”, “buffer” for “buffered”

[2] = tested on: human platelets stimulated with collagen; test: Inhibition of platelet aggregation in vitro (collagen-induced, platelet-rich plasma); type: cell-based; conditions: human PRP, 37° C.
Method: Inhibition of Platelet Aggregation in vitro
To determine the platelet aggregation-inhibiting action, blood from healthy subjects of both sexes was used. One part of 3.8% strength aqueous sodium citrate solution was admixed to 9 parts of blood as an anticoagulant. Platelet-richer citrate plasma (PRP) is obtained from this blood by means of centrifugation.
(§2) For the investigations, 445 μl of PRP and 5 μl of the active compound solution were preincubated in a water-bath at 37° C. The platelet aggregation was then determined in an aggregometer at 37° C. using the turbidometric method. For this, 50 μl of collagen, an aggregation-inducing agent, were added to the preincubated sample and the change in optical density was recorded. For the quantitative evaluation, the maximum aggregation response was determined and the percentage inhibition compared with the control was calculated therefrom.
Inhibition of Platelet Pggregation in vitro
as §2, with “For these investigations, 445” for “For the investigations, 445”

[3] = tested on: rabbit aortic rings precontracted with phenylephrine; test: Vessel-relaxing action in vitro on isolated aortic rings precontracted with phenylephrine; conditions: Oryctolagus cuniculus, rabbit aorta rings, phenylephrine contraction
Method: Vessel-relaxing Action in vitro
Rings 1.5 mm wide of an aorta isolated from a rabbit are introduced individually, under pretension, in 5 ml organ baths with Krebs-Henseleit solution warmed to 37° C. and gassed with carbogen. The contraction force is amplified and digitalized and recorded in parallel on a line recorder. To generate a contraction, phenylephrine is added cumulatively to the bath in an increasing concentration.
(§3) After several control cycles, the substance to be investigated is investigated in each further pass in each case in an increasing dosage, and a comparison is made with the level of the contraction achieved in the last preliminary pass. The concentration necessary to reduce the level of the control value by 50% (IC50) is calculated from this. The standard application volume is 5 μl.
as §3, with “this.” for “this. The standard application volume is 5 μl.”
The standard application volume is 5 μl.

activation at 1 µM ([1]; embodiment III): 315%
IC50 ([2]; embodiment III): 50 µg/mL (≈ 164 µM)
IC50 ([3]; embodiment III): 5 µM
SMILES: OCc1cnc(-c2nn(Cc3ccccc3)c3ccccc23)o1 [III-71, 1-Benzyl-3-(5-hydroxymethyl-oxazol-2-yl)-indazole]

melting point: 99 °C
IC50 ([3]; embodiment II): 13 µM
SMILES: OCc1cccc(-c2nn(Cc3ccccc3F)c3ccccc23)n1 [II-62]

activation at 1 µM ([1]; embodiment IV): > 1000%
IC50 ([2]; embodiment IV): 30 µg/mL (≈ 91.1 µM)
IC50 ([3]; iv, embodiment IV): 7.2 µM
SMILES: N#Cc1ccccc1Cn1nc(-c2ccc(CO)o2)c2ccccc21 [IV-136, 1-(^2-Cyanobenzyl)-3-(5-hydroxymethylfuran-2-yl)-indazole]

activation at 1 µM ([1]; embodiment III): > 1000%
IC50 ([3]; embodiment III): 3.6 µM
SMILES: Cc1coc(-c2nn(Cc3ccccc3F)c3ccccc23)n1 [III-80]

activation at 1 µM ([1]; embodiment II): 116%
IC50 ([3]; embodiment II): > 31 µM
SMILES: Clc1nccc(-c2nn(Cc3ccccc3)c3ccccc23)n1 [II-50]

IC50 ([2]; embodiment III): 1 µg/mL (≈ 2.75 µM)
SMILES: CCOC(=O)c1csc(-c2nn(Cc3ccccc3)c3ccccc23)n1 [III-72, Ethyl 2-(1-benzyl-indazol-3-yl)-thiazole-4-carboxylate]

melting point: 175 to 177 °C
SMILES: Cc1nc(-c2nn(Cc3ccccc3F)c3ccccc23)oc1CN1C(=O)c2ccccc2C1=O [Process Example 11, 2-[1-(2-fluorobenzyl)-indazole-3-yl]-4-methyl-5-(N-phthalimidomethyl)-oxazole]

activation at 1 µM ([1]; embodiment III): > 1000%
IC50 ([3]; embodiment III): 2.2 µM
SMILES: Cc1nc(-c2nn(Cc3ccccc3)c3ccccc23)oc1CO [III-75]

From US6410740B1, “Heterocyclylmethyl-substituted pyrazol derivatives” (Bayer Aktiengesellschaft, priority 1996, dated 2002)
